Measured values reported in US7524840B2, “7,8-disubstituted pyrazolobenzodiazepines” (Hoffmann-La Roche Inc., priority 2004, dated 2009).

Tests used:
[1] = system: VEGF-stimulated HUVEC; assay: VEGF-stimulated HUVEC proliferation assay (BrdU); type: cell-based; settings: Homo sapiens, BrdU labeling, VEGF 20 ng per mL, 24 hour exposure, read-out: Antiproliferative Activity VEGF-stimulated HUVEC Assay IC50
Experimental: (§1) The antiproliferative activity of test compounds of this invention in cell-based assays was evaluated by BrdU assay using the BrdU kit (Roche Biochemicals 1-647-229). Human umbilical vein endothelial cells (HUVEC, Clonetics CC-2519) were cultured in EGM-2 (Clonetics CC-3162) medium and seeded at 10000 cells per well in a volume of 200 μL of EGM-2 (Clonetics CC-3162) media in a 96-well flat bottom plates (Costar 3595) overnight. After 24 hours of growth at 37° C. with 5% CO2, the incubation media was removed slowly by aspiration, and the content of each well was washed with 300 μL pre-warmed EBM-2 (Clonetics CC-3156) containing 50 μg per mL of gentamycin and 50 ng per mL of amphotercin-B (Clonetics CC-4083). Subsequently, the remaining media was again aspirated and replaced with 160 μL per well of serum starvation media (EBM-2 supplemented with 1% heat inactivated FBS (Clonetics CC-4102), 50 μg per mL gentamycin and 50 ng per mL of amphotercin-B (Clonetics CC-4083), 10 units per mL of Wyeth-Ayerst heparin (NDC0641-0391-25), and 2 mM L-glutamine (GIBCO 25030-081). After serum starving the cells for 24 hours, 20 μL of test compound at 10× test concentration in serum starvation medium with 2.5% DMSO was added to the appropriate wells. The control wells contained 20 μL of serum starvation medium with 2.5% DMSO. Plates were returned to the incubator for 2 hours. After pre-incubating the cells with the test compounds for 2 hours, 20 μL of growth factors at 10X assay concentration diluted in serum starvation media, FGF at 50 ng per mL, or VEGF (R&D systems 293-VE) at 200 ng per mL were added. The final concentration of FGF in the assay was 5 ng per mL and the final concentration of VEGF in the assays was 20 ng per mL. The growth factor free control wells had 20 μL per well of serum starvation media with the same amount of BSA as the wells with growth factors. The plates were returned to the incubator for an additional 22 hours.
(§2) After 24 hour exposure to the test compounds, the cells were labeled with BrdU (Roche Biochemicals 1-647-229), by adding 20 μL per well of BrdU labeling reagent that has been diluted (1:100) in serum starvation medium. The plates were then returned to the incubator for 4 hours. The labeling medium was removed by draining the medium onto paper towels. […] The plates were read at 450 nm with reference wavelength of 650 nm. The percent inhibition for each test compound was calculated by subtracting the absorbency of the blank (no cells) wells from all wells, then subtracting the division of the average absorbency of each test duplicate by the average of the controls from 1. […] The IC50 is determined from the linear regression of a plot of the logarithm of the concentration versus percent inhibition.

[2] = system: H460a; assay: H460a cell-based MTT proliferation assay; settings: 120 h, 5 days post addition of test compound, read-out: Antiproliferative Activity H460a Assay IC90
Experimental: The H460a cell line was purchased from (ATCC; Rockville, Md.) and was grown in the medium recommended by ATCC. For analysis of the effect of the test compounds on growth of these cells, the cells were plated at 150 cells per well in a 96-well tissue culture plate, and were incubated overnight at 37° C. with 5% CO2. The next day, the test compounds were dissolved in 100% dimethyl sulfoxide (DMSO) to yield a 10 mM stock solution. Each compound was diluted with sterile medium to 1 mM in a sufficient quantity to yield a final concentration of 120 μM. The compounds were then serially diluted in medium with 1.2% DMSO. One-fourth final volume of the diluted compounds was transferred to 96 well plates. Test compounds were assayed in duplicate. […] The plates were returned to the incubator, and 5 days post addition of test compound, were analyzed as described below. […] Absorbencies were read in a microtiter plate reader (Molecular Dynamics) at a wavelength of 570 nm with a 650 nm reference. Percent inhibition was calculated by subtracting the absorbance of the blank (no cell) wells from all wells, then subtracting the division of the average absorbance of each test duplicate by the average of the controls from 1.00. Inhibitory concentrations (IC50) were determined from the linear regression of a plot of the logarithm of the concentration versus the percent inhibition.

[3] = system: FGF-stimulated HUVEC; assay: FGF-stimulated HUVEC proliferation assay (BrdU); type: cell-based; settings: Homo sapiens, BrdU labeling, FGF 5 ng per mL, 24 hour exposure, read-out: Antiproliferative Activity FGF-stimulated HUVEC Assay IC50
Experimental: as §1, §2

`COc1cc2c(cc1F)C(c1ccccc1Cl)=Nc1c(n[nH]c1C)N2` [IVa, 5-(2-chlorophenyl)-1,2-dihydro-7-fluoro-8-methoxy-3-methyl-pyrazolo[3,4-b][1,4]benzodiazepine] was tested, and the IC50 [1] was 23 nM, the IC90 [2] was 1570 nM and the IC50 [3] was 100 nM.
